Values of other authors as cited in patent US20020103240A1, “Process for resolution of 2-amino-6-propylamino-4,5,6,7-tetrahydrobenzthiazole and compounds therefor” (priority 2000, published 2002).

Settings: (S) isomer compared with (R) enantiomer; no test described

In the case of `CCCN[C@H]1CCc2nc(N)sc2C1` [pramipexole, (S)-2-amino-6-propylamino-4,5,6,7-tetrahydrobenzothiazole], the “dopaminergic activity of the (S) isomer relative to the (R) enantiomer” value is listed as “twice as high”.
